Source: patent US11046660B2, “Compounds and their use as PDE4 activators” (MIRONID LIMITED, priority 2016, dated 2021)
Each block holds one compound with its values, some of them ahead of it.

Assays:
Type in all cases: biochemical
[1] = target: T1, full-length human PDE4D5 (Homo sapiens, UniProt Q08499); assay: PDE4D5 long form enzyme activation radio-assay (Experiment 1, Protocol A or B); settings: for activation at 30 µM: mean % increase in counts over basal activity
T1 construct: stably expressed the full-length human PDE4D5, PDE4A4 and PDE4B1 long isoforms; made in house; cytosol fraction of cell lysate
Text: (§1) Experiment 1: Identification of PDE4 Long Form Activators of the Present Invention Using Full-Length Human PDE4 Isoforms PDE4D5, PDE4A4, PDE4B1 and PDE4B2
(§2) HEK 293 cells were transfected with pDEST™ PDE4 expression vectors using Lipofectamine LTX/Plus reagent (Invitrogen) as outlined by the manufacturer and clonal isolates expanded to obtain cell lines that stably expressed the full-length human PDE4D5, PDE4A4 and PDE4B1 long isoforms and the full length human PDE4B2 short isoform. These were called the HEK-PDE4D5, HEK-PDE4A4, HEK-PDE4B1 and HEK-PDE4B2 cell lines, respectively.
(§3) HEK-PDE4D5 cells were seeded out in 100 mm plates and incubated at 37° C. in an atmosphere of 5% CO2, 95% air. Cell lysates were prepared using KHEM buffer [50 mM KCl, 10 mM EGTA, 50 mM HEPES (pH 7.2), 1.92 mM MgCl2].
(§4) To prepare the cell lysates, the 100 mm plates containing the cells were placed on ice and washed with ice-cold PBS (phosphate buffered saline, pH 7.4). KHEM buffer (500 μl) was added to the cells. Cells were then scraped off the plate and triturated using a needle (BD Microlance™ 0.8, 40 mm). The lysed cells were then centrifuged at 2000 rpm for 10 minutes to remove cell debris and the supernatant (cell lysate containing recombinant PDE4D5) was transferred to a fresh tube and kept on ice.
(§5) The cell lysate containing recombinant PDE4D5 was transferred into a centrifuge tube and placed into an ultracentrifuge (BECKMAN COULTER) and spun at high speed (100,000 g) for 30 minutes at 4° C. The cytosol fraction was then collected and its protein amount determined using a BCA protein assay.
(§6) PDE assays were performed using a final concentration of 10 mM Tris/5 mM MgCl2 and 1 μM [^3H]-cAMP (Perkin Elmer) plus PDE4D5 cell lysate cytosol fraction, containing over-expressed PDE4D5, with and without test compound. Incubations were performed at 30° C. for 5 minutes. The samples were then placed in a boiling water bath for 2 minutes to denature the PDE enzyme, and returned to ice. Samples were allowed to cool for 10 min after which snake venom 5′-nucleotidase (25 μl, 1 mg/ml; Sigma) was added. The tubes were vortexed and incubated in a water bath at 30° C. for 10 minutes, to attain conversion of [^3H]-5′-AMP to [^3H]-adenosine, and then placed on ice. Dowex ion exchange resin (Sigma) prepared as a 1:1 Dowex: water stock was thoroughly re-suspended and diluted 2:1 with ethanol. The resulting Dowex suspension (0.4 ml) was added to each tube. Tubes were vortexed to mix and then incubated on ice for at least 15 minutes before a final vortex. The Dowex resin was pelleted by centrifugation at 13,000 g at 4° C. for 3 minutes and 150 μl of the supernatant was removed to an Eppendorf tube containing 1 ml of ScintiSafe3 scintillation fluid (Fisher). Tubes were vortexed thoroughly to mix and the recovered [^3H]-adenosine was quantified by measuring counts over 1 minute in a scintillation counter.
(§7) The % increase in counts in the presence of test compound at a particular concentration indicates the % increase in enzyme activity at that concentration.
(§8) PDE assays were performed in thin walled V-bottomed 96-well plates. The assays were performed at a final concentration of 10 mM Tris/5 mM MgCl2 plus PDE4D5 cell lysate cytosol fraction, containing over-expressed PDE4D5, with and without test compound. The lysate/compound mix were incubated together for 15 min at room temperature on an orbital shaker prior to addition of [^3H] cAMP (final concentration 1 μM [^3H] cAMP; Perkin Elmer) to a final volume of 50 μl per reaction. The reactions were then incubated for 10 minutes at 30° C., terminated by heating for 2 min at 95° C. and allowed to cool. Snake venom (12.5 μl of 1 mg/ml; Crotalus atrox, Sigma) was then added and the plates were agitated and incubated for a further 15 minutes at 30° C. […]

[2] = target: T2, full-length human PDE4B1 (Homo sapiens, UniProt Q07343); assay: PDE4B1 long form enzyme activation radio-assay (Experiment 1, Protocol A or B); settings: mean % increase in counts over basal activity
T2 construct: stably expressed the full-length human PDE4D5, PDE4A4 and PDE4B1 long isoforms; made in house; cytosol fraction of cell lysate
Text: as §1, §2, §3, §4, §5, §6, §7, §8

[3] = target: T3, full-length human PDE4B2 (Homo sapiens, UniProt Q07343); assay: PDE4B2 short form enzyme activation radio-assay (Experiment 1, Protocol A or B); settings: for activation at 30 µM: mean % increase in counts over basal activity
T3 construct: and the full length human PDE4B2 short isoform; made in house; cytosol fraction of cell lysate
Text: as §1, §2, §3, §4, §5, §6, §7, §8

T3 sequence (Q07343 1-564 isoform Q07343-2): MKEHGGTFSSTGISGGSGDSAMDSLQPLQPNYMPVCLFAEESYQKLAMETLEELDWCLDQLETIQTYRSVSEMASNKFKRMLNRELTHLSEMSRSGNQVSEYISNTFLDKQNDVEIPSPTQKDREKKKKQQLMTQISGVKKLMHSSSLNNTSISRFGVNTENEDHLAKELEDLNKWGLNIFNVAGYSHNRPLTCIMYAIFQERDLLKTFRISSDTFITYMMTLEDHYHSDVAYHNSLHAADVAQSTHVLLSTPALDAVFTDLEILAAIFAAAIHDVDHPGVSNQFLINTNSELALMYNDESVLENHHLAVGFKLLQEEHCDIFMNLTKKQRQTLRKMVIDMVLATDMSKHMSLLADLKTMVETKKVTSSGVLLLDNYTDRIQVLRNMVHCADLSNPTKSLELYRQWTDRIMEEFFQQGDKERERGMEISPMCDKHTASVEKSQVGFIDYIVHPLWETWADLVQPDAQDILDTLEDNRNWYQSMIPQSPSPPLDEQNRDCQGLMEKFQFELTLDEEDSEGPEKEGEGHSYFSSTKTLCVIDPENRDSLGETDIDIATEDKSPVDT
T1 sequence (Q08499 1-745 isoform Q08499-6): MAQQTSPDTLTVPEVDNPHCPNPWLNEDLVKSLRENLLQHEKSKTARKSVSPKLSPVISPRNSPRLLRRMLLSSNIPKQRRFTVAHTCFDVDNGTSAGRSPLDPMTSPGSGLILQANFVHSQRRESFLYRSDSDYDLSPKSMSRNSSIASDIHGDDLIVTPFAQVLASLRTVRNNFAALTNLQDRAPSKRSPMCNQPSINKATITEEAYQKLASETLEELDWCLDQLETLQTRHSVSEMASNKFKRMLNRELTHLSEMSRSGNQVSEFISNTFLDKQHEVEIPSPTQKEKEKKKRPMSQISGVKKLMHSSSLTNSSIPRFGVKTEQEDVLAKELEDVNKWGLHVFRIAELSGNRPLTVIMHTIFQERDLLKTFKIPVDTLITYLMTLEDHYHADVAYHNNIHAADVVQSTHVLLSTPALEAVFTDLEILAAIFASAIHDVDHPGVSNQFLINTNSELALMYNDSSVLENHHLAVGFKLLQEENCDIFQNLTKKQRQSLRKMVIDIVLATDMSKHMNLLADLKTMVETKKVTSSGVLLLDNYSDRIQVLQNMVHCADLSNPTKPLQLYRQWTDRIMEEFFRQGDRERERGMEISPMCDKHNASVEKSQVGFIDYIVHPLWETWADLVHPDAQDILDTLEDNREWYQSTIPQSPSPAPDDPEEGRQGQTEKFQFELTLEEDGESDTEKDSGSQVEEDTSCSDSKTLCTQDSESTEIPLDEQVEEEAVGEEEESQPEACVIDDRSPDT
T2 sequence (Q07343 whole entry, canonical isoform): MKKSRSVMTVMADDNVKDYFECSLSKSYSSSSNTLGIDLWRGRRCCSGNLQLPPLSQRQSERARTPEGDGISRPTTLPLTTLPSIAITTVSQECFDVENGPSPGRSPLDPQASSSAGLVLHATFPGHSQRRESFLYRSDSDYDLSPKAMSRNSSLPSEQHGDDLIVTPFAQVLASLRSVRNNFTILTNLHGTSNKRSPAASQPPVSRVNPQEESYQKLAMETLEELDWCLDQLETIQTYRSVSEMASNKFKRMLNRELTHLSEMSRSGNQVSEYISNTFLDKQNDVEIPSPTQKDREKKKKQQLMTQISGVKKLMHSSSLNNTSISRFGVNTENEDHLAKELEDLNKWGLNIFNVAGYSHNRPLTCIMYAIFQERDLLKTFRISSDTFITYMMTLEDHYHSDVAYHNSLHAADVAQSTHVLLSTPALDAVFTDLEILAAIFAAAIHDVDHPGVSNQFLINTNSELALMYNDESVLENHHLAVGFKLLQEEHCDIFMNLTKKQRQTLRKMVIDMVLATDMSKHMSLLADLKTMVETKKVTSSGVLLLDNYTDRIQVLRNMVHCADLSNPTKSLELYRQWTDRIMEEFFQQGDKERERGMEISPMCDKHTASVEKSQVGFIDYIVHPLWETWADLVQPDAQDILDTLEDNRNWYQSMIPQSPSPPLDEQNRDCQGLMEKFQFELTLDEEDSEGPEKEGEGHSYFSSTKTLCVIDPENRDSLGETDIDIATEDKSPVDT

SMILES: COc1cccc(CNC(=O)Cn2nc(-c3ccc(Cl)c(F)c3)nc2C#N)c1 [Example 16, 2-[3-(4-chloro-3-fluorophenyl)-5-cyano-1H-1,2,4-triazol-1-yl]-N-(3-methoxybenzyl)acetamide]
- activation at 30 µM ([2]; Protocol B): 52.2%

SMILES: COCCNC(=O)c1nc(-c2ccc(Cl)c(F)c2)nn1CC(=O)NCc1cccc(F)c1 [Example 20, 3-(4-chloro-3-fluorophenyl)-1-{[(3-fluorobenzyl)carbamoyl]methyl}-N-(2-methoxyethyl)-1H-1,2,4-triazole-5-carboxamide]
- activation at 30 µM ([3]; Protocol B): -22.4%
- activation at 30 µM ([1]; Protocol B): 63.3%

SMILES: CCOC(=O)c1cc(-c2ccc(Cl)cc2)nn1CC(=O)NCc1cccc(OC)c1 [Example 27, Ethyl 3-(4-chlorophenyl)-1-{[(3-methoxybenzyl)carbamoyl]methyl}-1H-pyrazole-5-carboxylate]
- activation at 30 µM ([3]; Protocol B): 7.6%
- activation at 30 µM ([1]; Protocol B): 75.1%

SMILES: CNC(=O)c1nc(-c2ccc(Cl)c(F)c2)nn1CC(=O)NCc1cccc(OC)c1 [Example 12, 3-(4-chloro-3-fluorophenyl)-1-{[(3-methoxybenzyl)carbamoyl]methyl}-N-methyl-1H-1,2,4-triazole-5-carboxamide]
- activation at 30 µM ([2]; Protocol B): 89.2%

SMILES: CCOC(=O)c1nc(-c2ccc(Cl)c(F)c2)nn1CC(=O)NCc1cccc(OC)c1 [Example 5, Ethyl 3-(4-chloro-3-fluorophenyl)-1-{[(3-methoxybenzyl)carbamoyl]methyl}-1H-1,2,4-triazole-5-carboxylate]
- activation at 30 µM ([2]; Protocol B): 44%

SMILES: CCc1nc(-c2ccc(Cl)c(F)c2)nn1CC(=O)NCc1cnc[nH]1 [Example 29, N-[(1H-imidazol-5-yl)methyl]-2-[3-(4-chloro-3-fluorophenyl)-5-ethyl-1H-1,2,4-triazol-1-yl]acetamide]
- activation at 30 µM ([1]; Protocol B): 31.9%

SMILES: COCCNC(=O)c1nc(-c2ccc(Cl)c(F)c2)nn1CC(=O)NCc1cccc(OC)c1 [Example 21, 3-(4-chloro-3-fluorophenyl)-1-{[(3-methoxybenzyl)carbamoyl]methyl}-N-(2-methoxyethyl)-1H-1,2,4-triazole-5-carboxamide]
- activation at 30 µM ([1]; Protocol B): 105%

SMILES: COc1cccc(CNC(=O)Cn2nc(-c3ccc(Cl)c(F)c3)nc2C(=O)N(C)C)c1 [Example 18, 3-(4-chloro-3-fluorophenyl)-1-{[(3-methoxybenzyl)carbamoyl]methyl}-N,N-dimethyl-1H-1,2,4-triazole-5-carboxamide]
- activation at 30 µM ([1]; Protocol B): 83.9%

SMILES: COC(=O)c1nc(-c2ccc(Cl)c(F)c2)nn1CC(=O)NCc1ccccc1 [Example 3, Methyl 1-[(benzylcarbamoyl)methyl]-3-(4-chloro-3-fluorophenyl)-1H-1,2,4-triazole-5-carboxylate]
- activation at 30 µM ([3]; Protocol A): -0.9%
- activation at 30 µM ([1]; Protocol A): 62.6%

SMILES: CCOC(=O)c1cc(-c2ccc(Cl)cc2)nn1CC(=O)NCc1cccc(F)c1 [Example 23, Ethyl 3-(4-chlorophenyl)-1-{[(3-fluorobenzyl)carbamoyl]methyl}-1H-pyrazole-5-carboxylate]
- activation at 30 µM ([1]; Protocol B): 93.7%

SMILES: CN(C)C(=O)c1nc(-c2ccc(Cl)c(F)c2)nn1CC(=O)NCc1cccc(F)c1 [Example 11, 3-(4-chloro-3-fluorophenyl)-1-{[(3-fluorobenzyl)carbamoyl]methyl}-N,N-dimethyl-1H-1,2,4-triazole-5-carboxamide]
- activation at 30 µM ([2]; Protocol A): 84.1%

SMILES: O=C(Cn1nc(-c2ccc(Cl)c(F)c2)nc1C(=O)NC1CCCCC1)NCc1cccc(F)c1 [Example 22, 3-(4-chloro-3-fluorophenyl)-1-{[(3-fluorobenzyl)carbamoyl]methyl}-N-cyclohexyl-1H-1,2,4-triazole-5-carboxamide]
- activation at 30 µM ([1]; Protocol B): 53.1%

SMILES: COC(=O)c1cc(-c2cccc(OC)c2)nn1CC(=O)NCc1cccc(F)c1 [Example 24, Methyl 1-{[(3-fluorobenzyl)carbamoyl]methyl}-3-(3-methoxyphenyl)-1H-pyrazole-5-carboxylate]
- activation at 30 µM ([1]; Protocol B): 87.4%

SMILES: COc1cccc(CNC(=O)Cn2nc(-c3ccc(Cl)c(F)c3)nc2C(N)=O)c1 [Example 9, 3-(4-chloro-3-fluorophenyl)-1-{[(3-methoxybenzyl)carbamoyl]methyl}-1H-1,2,4-triazole-5-carboxamide]
- activation at 30 µM ([2]; Protocol A): 58.5%

The next lines start with the values.

- activation at 30 µM ([1]; Protocol B): 81.1%
SMILES: COc1cccc(CNC(=O)Cn2nc(-c3ccc(Cl)c(F)c3)nc2C(=O)NC(C)C)c1 [Example 17, 3-(4-chloro-3-fluorophenyl)-1-{[(3-methoxybenzyl)carbamoyl]methyl}-N-isopropyl-1H-1,2,4-triazole-5-carboxamide]

- activation at 30 µM ([1]; Protocol B): 84.1%
SMILES: CCNC(=O)c1nc(-c2ccc(Cl)c(F)c2)nn1CC(=O)NCc1cccc(F)c1 [Example 19, 3-(4-chloro-3-fluorophenyl)-1-{[(3-fluorobenzyl)carbamoyl]methyl}-N-ethyl-1H-1,2,4-triazole-5-carboxamide]

- activation at 30 µM ([2]; Protocol B): 80.5%
SMILES: CCOC(=O)c1nc(-c2ccc(Cl)c(F)c2)nn1CC(=O)NCc1cccc(F)c1 [Example 4, Ethyl 3-(4-chloro-3-fluorophenyl)-1-{[(3-fluorobenzyl)carbamoyl]methyl}-1H-1,2,4-triazole-5-carboxylate]

- activation at 30 µM ([1]; Protocol B): 87.6%
SMILES: CCc1nc(-c2ccc(Cl)c(F)c2)cn1CC(=O)NCc1cc(Cl)cc(Cl)c1 [Example 30, 2-[4-(4-chloro-3-fluorophenyl)-2-ethyl-1H-imidazol-1-yl]-N-(3,5-dichlorobenzyl) acetamide]

- activation at 30 µM ([3]; Protocol B): 17.1%
- activation at 30 µM ([1]; Protocol B): 38.2%
SMILES: CNC(=O)c1cc(-c2ccc(Cl)c(F)c2)nn1CC(=O)NCc1cccc(F)c1 [Example 26, 3-(4-chloro-3-fluorophenyl)-1-{[(3-fluorobenzyl)carbamoyl]methyl}-N-methyl-1H-pyrazole-5-carboxamide]

- activation at 30 µM ([2]; Protocol A): 50.9%
SMILES: NC(=O)c1nc(-c2ccc(Cl)c(F)c2)nn1CC(=O)NCc1cccc(F)c1 [Example 8, 3-(4-chloro-3-fluorophenyl)-1-{[(3-fluorobenzyl)carbamoyl]methyl}-1H-1,2,4-triazole-5-carboxamide]

- activation at 30 µM ([3]; Protocol B): 23.3%
- activation at 30 µM ([2]; Protocol B): 85.1%
SMILES: CNC(=O)c1nc(-c2ccc(Cl)c(F)c2)nn1CC(=O)NCc1cccc(F)c1 [Example 10, 3-(4-chloro-3-fluorophenyl)-1-{[(3-fluorobenzyl)carbamoyl]methyl}-N-methyl-1H-1,2,4-triazole-5-carboxamide]

- activation at 30 µM ([3]; Protocol A): -2.5%
- activation of PDE4 short form PDE4B2 (in words) ([3]; Protocol A, FIG. 1(b)): lack of activation
- activation at 30 µM ([1]; Protocol A): 92.9%
- activation of PDE4 long form PDE4D5 (in words) ([1]; Protocol A, FIG. 1(a)): dose dependent activation
SMILES: CCOC(=O)c1nc(-c2ccc(Cl)c(F)c2)nn1CC(=O)NCc1ccccc1 [Example 2, Ethyl 1-[(benzylcarbamoyl)methyl]-3-(4-chloro-3-fluorophenyl)-1H-1,2,4-triazole-5-carboxylate]

- activation at 30 µM ([3]; Protocol B): 21%
- activation at 30 µM ([1]; Protocol B): 39.5%
SMILES: CNC(=O)c1cc(-c2ccc(Cl)c(F)c2)nn1CC(=O)NCc1cccc(OC)c1 [Example 25, 3-(4-chloro-3-fluorophenyl)-1-{[(3-methoxybenzyl)carbamoyl]methyl}-N-methyl-1H-pyrazole-5-carboxamide]
